In patent US20160375016A1, “METHODS FOR REDUCING ANXIETY AND IMPULSIVITY IN SUBJECTS INITIATING TREATMENT WITH SEROTONIN REUPTAKE INHIBITORS” (THE JOHNS HOPKINS UNIVERSITY, priority 2013, published 2016):
Like-named read-outs stand apart in the source and are kept apart here.

Tests used:
[1] = system: C57BL/6 mice; assay: Elevated plus maze after acute drug administration; type: in vivo, mouse; settings: for anxiety in the elevated plus maze compared to Control mice: FIG. 1A legend, result in words; for time spent in the open arm of the elevated plus maze: reboxetine specificity experiment, FIG. 1D, saline 12.3±3.2, n=8 mice per group
Description: Animals and Housing. 7-8 week old male C57BL/6 mice were obtained from the National Cancer Institute (Frederick, Md.) and housed in the Broadway Research Building Johns Hopkins animal facility. Housing and behavioral testing rooms were temperature controlled with a 12 h light/dark cycle, and all behavioral tests were conducted during the light cycle. Animal protocols were approved by the Johns Hopkins University School of Medicine Animal Care and Use Committee.
Drug administration. […]
Elevated Plus Maze. Mice (n=10) were tested on the elevated plus maze in an isolated behavior suite. Mice were placed in the center of the maze and given 5 minutes to freely explore the maze. Time spent in open and closed arms of the maze were tracked using ANY-maze software (Stoelting, Wood Dale, Ill.).
Statistical Analyses. Statistical analyses were completed using GraphPad Prism 5.0 (La Jolla, Calif.). Comparisons between groups in the animal studies were made with one-way ANOVA, and P values <0.05 were considered statistically significant. The Johns Hopkins Institute for Clinical and Translational Research Biostatistics Center provided statistical support.

[2] = cited from earlier work
[3] = assumed from literature for one-compartment model

## COc1ccccc1N1CCN(CCN(C(=O)C2CCCCC2)c2ccccn2)CC1 [WAY-100635]
[1]
  anxiety in the elevated plus maze compared to Control mice: no effect
[1]; FIG. 1D legend
  reversal of anxiety when co-administered with the SNRI reboxetine: does not reverse anxiety
  reversal of anxiety when coadministered with the SSRI fluoxetine: reverses anxiety
[1]; acute treatment 40 minutes before testing, fluoxetine 20 mg/kg, WAY-100635 0.3 mg/kg, FIG. 1A, Control 20.03±10.12
  time spent in the open arms of the elevated plus maze: 20.82 ± 15.18 s

## CN(C)CCCC1(c2ccc(F)cc2)OCc2cc(C#N)ccc21 (centres unmarked) [citalopram]
[2]; [3]
  Tmax: 4 h
  V (apparent volume of distribution): 840 L
  t1/2: 35 h

## CNCCC(Oc1ccc(C(F)(F)F)cc1)c1ccccc1 (centres unmarked) [fluoxetine]
[1]
  anxiety in the elevated plus maze compared to Control mice: more anxious
  time spent in the open arm of the elevated plus maze: 4.0 ± 4.5 s
[1]; acute fluoxetine 20 mg/kg vs saline
  less time in the open arms compared to Control mice: 72%
[2]; Prozac Full Prescribing Information
  trough concentration at steady-state: 72 to 258 ng/mL
[2]; single 40-mg dose of Prozac
  half-life (t1/2): 48 h
  peak drug concentration (Cmax): 35 ng/mL

## COCCCC/C(=N\OCCN)c1ccc(C(F)(F)F)cc1 [fluvoxamine]
[2]; after a single 50 mg dose
  Cmax: 30 ng/mL
  Tmax: 6 h
  t1/2: 19 h

## Fc1ccc([C@@H]2CCNC[C@H]2COc2ccc3c(c2)OCO3)cc1 [paroxetine]
[2]; after a single 30 mg dose
  Cmax: 17.6 ng/mL
  Tmax: 6.3 h
  t1/2: 16 h

## CCOc1ccccc1OC(c1ccccc1)C1CNCCO1 (centres unmarked) [reboxetine]
[1]
  time spent in the open arm of the elevated plus maze: 10.6 ± 10.8 s

## CN[C@H]1CC[C@@H](c2ccc(Cl)c(Cl)c2)c2ccccc21 [sertraline]
[2]; [3]
  Tmax: 6.5 h
  V (apparent volume of distribution): 1400 L
  t1/2: 26 h

## COc1ccc(C(CN(C)C)C2(O)CCCCC2)cc1 (centres unmarked) [venlafaxine]
[2]; [3]
  Tmax: 8 h
  V (apparent volume of distribution): 426 L
  t1/2: 16.9 h
